Two compounds from patent US20200129473A1, “USE OF ERIBULIN AND CYCLIN DEPENDENT KINASE INHIBITORS IN THE TREATMENT OF CANCER” (EISAI R&D MANAGEMENT CO., LTD., priority 2017, published 2020) can be followed below.

Molecules are shown by their SMILES. pIC50: −log10 of the molar value. Like-named read-outs stand apart in the source and are kept apart here. Bounds are passed on as bounds.

As a reminder, the pIC50 is the negative decadic logarithm of the IC50, by convention in mol/L.

Test [1] concerns ZR-75-1 human breast cancer cells. In words: Cell Titer-Glo growth inhibition, ZR-75-1. The format is cell-based. In general terms: Cellular ATP, detected with luciferase, serves as a proxy for viable cell number.
Test [2] relates to Hs578t human breast cancer cells. The test can be described thus: Cell Titer-Glo growth inhibition, Hs578t. In kind it is cell-based. The settings on record: Hs-578T.
For test [3], the system named is MDA-MB-175-VII human breast cancer cells. The test can be described thus: Cell Titer-Glo growth inhibition, MDA-MB-175VII. The format is cell-based.
The test system of test [4] is BT-549 human breast cancer cells. In words: Cell Titer-Glo growth inhibition, BT-549. The format is cell-based.
The test system of test [5] is MDA-MB-134-VI human breast cancer cells. The test can be described thus: Cell Titer-Glo growth inhibition, MDA-MB-134VI. In kind it is cell-based.
In test [6] the test system is HCC1806 human breast cancer cells. In words: Cell Titer-Glo growth inhibition, HCC1806. The format is cell-based.
The test system of test [7] is panel of 12 human breast cancer cell lines. In words: Cell Titer-Glo growth inhibition, statements for the whole panel.
Procedure: MCF-7 human breast cancer cells were cultured in RPMI 1640 medium supplemented with 10% fetal bovine serum (FBS), 2 mM glutamine, 10 mM 4-(2-hydroxyethyl)-1-piperazineethanesulfonic acid (HEPES), 0.075% sodium bicarbonate, 100 units/mL sodium penicillin G, 100 μg/mL streptomycin sulfate and 25 μg/mL gentamicin. T-47D human breast cancer cells were cultured in RPMI 1640 medium supplemented with 10% FBS, 4.5 g/L glucose, 2 mM glutamine, 10 mM HEPES, 0.2 units/mL Insulin, 1 mM sodium pyruvate, 100 units/mL sodium penicillin G, 100 μg/mL streptomycin sulfate and 25 μg/mL gentamicin. ZR-75-1 human breast cancer cells were cultured in RPMI 1640 medium supplemented with 10% FBS, 4.5 g/L glucose, 2 mM glutamine, 10 mM HEPES, 1 mM sodium pyruvate, 100 units/mL sodium penicillin G, 100 μg/mL streptomycin sulfate and 25 μg/mL gentamicin. MDA-MB-134-VI human breast cancer cells were cultured in Leibovitz's L-15 medium supplemented with 20% FBS, 2 mM glutamine, 100 units/mL sodium penicillin G, 100 μg/mL streptomycin sulfate and 25 μg/mL gentamicin. MDA-MB-175-VII human breast cancer cells were cultured in Leibovitz's L-15 medium supplemented with 10% FBS, 2 mM glutamine, 10 mM HEPES, 100 units/mL sodium penicillin G, 100 μg/mL streptomycin sulfate and 25 μg/mL gentamicin. […]
The subject of test [8] is T-47D human breast cancer cells. The test can be described thus: Cell Titer-Glo growth inhibition, T-47D. In kind it is cell-based. Conditions: T47D.
Test [9] relates to HCC70 human breast cancer cells. In words: Cell Titer-Glo growth inhibition, HCC70. In kind it is cell-based.
The test system of test [10] is MDA-MB-231 human breast cancer cells. The test can be described thus: Cell Titer-Glo growth inhibition, MDA-MB-231. In kind it is cell-based.
The test system of test [11] is MDA-MB-415 human mammary gland/breast cancer cells. In words: Cell Titer-Glo growth inhibition, MDA-MB-415. The format is cell-based.
For test [12], the system named is MDA-MB-436 human adenocarcinoma derived cancer cells. The test can be described thus: Cell Titer-Glo growth inhibition, MDA-MB-436. In kind it is cell-based.
Test [13] concerns MCF-7 human breast cancer cells. The test can be described thus: Cell Titer-Glo growth inhibition, MCF-7. In kind it is cell-based.
For test [14], the system named is OD-BRE-0745, an ER+, PR+, Her2− luminal B infiltrating ductal adenocarcinoma (patient-derived breast tumor). In words: Antitumor activity in OD-BRE-0745 PDX model. The format is in vivo, Swiss nude mice. Conditions: 150 mg/kg palbociclib, contribution of eribulin masked (FIGS. 10 and 12). How it is done: A statistical test (analysis of variance) was performed to test for homogeneity between groups.

Where [15] appears, read: 72 h, read-out: Mean IC50, single agent Eribulin.

Turning to `C=C1C[C@@H]2CC[C@@]34C[C@H]5O[C@H]6[C@@H](O3)[C@H]3O[C@H](CC[C@@H]3O[C@H]6[C@H]5O4)CC(=O)C[C@@H]3[C@@H](OC)[C@@H](C[C@H](O)CN)O[C@H]3C[C@H]3O[C@@H](CC[C@@H]1O2)C[C@@H](C)C3=C` [Eribulin], the pIC50 in [1] (ZR-75-1, 72 h, read-out: Mean IC50, single agent Eribulin) is below 6.00; in test [2] (setting [15]) it was 9.45; in test [2] (read-out: Mean IC50 of eribulin dose response with constant 1 μM Palbociclib) it was 7.84; in test [2] (read-out: Mean IC50 of eribulin dose response with constant 10 μM Palbociclib) it was 9.10; in test [3] (Homo sapiens, MDA-MB-175-VII, 72 h, 72 h drug exposure, read-out: Mean IC50, single agent Eribulin), 9.92; in test [3] (Homo sapiens, MDA-MB-175-VII, eribulin 3.8 pM to 1 μM, constant 10 μM palbociclib, read-out: Mean IC50 of eribulin dose response with constant 10 μM Palbociclib), 7.03. Moreover, the pIC50 in test [3] (eribulin 3.8 pM to 1 μM, constant 10 μM palbociclib, listed as Eribufin, read-out: Mean IC50 of eribulin dose response with constant 10 μM Palbociclib) is 7.04; in [4] (BT-549, 72 h, read-out: Mean IC50, single agent Eribulin) it was 9.54; in test [4] (BT-549, read-out: Mean IC50 of eribulin dose response with constant 1 μM Palbociclib), 9.43; in test [4] (BT-549, read-out: Mean IC50 of eribulin dose response with constant 10 μM Palbociclib) it was 9.07; in test [5] (MDA-MB-134-VI, 72 h, read-out: Mean IC50, single agent Eribulin), 9.31; in test [5] (MDA-MB-134-VI, read-out: Mean IC50 of eribulin dose response with constant 1 μM Palbociclib) it was 7.68. Also, the pIC50 in test [6] (HCC1806, 72 h, read-out: Mean IC50, single agent Eribulin) was 9.85; in test [6] (HCC1806, read-out: Mean IC50 of eribulin dose response with constant 1 μM Palbociclib), 9.56; in [7] (Homo sapiens, read-out: IC50, single agent, overall statement) it was above 9.00; in test [8] (setting [15]) it was 9.73; in test [9] (HCC70, 72 h, read-out: Mean IC50, single agent Eribulin), 9.34; in test [9] (HCC70, read-out: Mean IC50 of eribulin dose response with constant 1 μM Palbociclib), 9.42. Further, the pIC50 was 7.67 in test [9] (HCC70, read-out: Mean IC50 of eribulin dose response with constant 10 μM Palbociclib); 9.83 in test [10] (MDA-MB-231, 72 h, read-out: Mean IC50, single agent Eribulin); 8.84 in test [10] (MDA-MB-231, read-out: Mean IC50 of eribulin dose response with constant 1 μM Palbociclib); 9.39 in [11] (MDA-MB-415, 72 h, read-out: Mean IC50, single agent Eribulin); 9.07 in [12] (MDA-MB-436, 72 h, read-out: Mean IC50, single agent Eribulin); 8.69 in [12] (MDA-MB-436, read-out: Mean IC50 of eribulin dose response with constant 1 μM Palbociclib). In addition, the pIC50 in test [12] (MDA-MB-436, read-out: Mean IC50 of eribulin dose response with constant 10 μM Palbociclib) was 8.20; in test [13] (MCF7, 72 h, read-out: Mean IC50, single agent Eribulin) it was 9.60; in test [13] (MCF7, read-out: Mean IC50 of eribulin dose response with constant 1 μM Palbociclib) it was 9.22. Further, the “Potentiation of eribulin growth inhibition by palbociclib” value in test [7] (all cell lines, constant dose of 10 μM or 1 μM of palbociclib) is given as “No potentiation effect”.

Take `CC(=O)c1c(C)c2cnc(Nc3ccc(N4CCNCC4)cn3)nc2n(C2CCCC2)c1=O` [Palbociclib, 6-acetyl-8-cyclopentyl-5-methyl-2-[(5-piperazin-1-ylpyridin-2-yl)amino]pyrido[2,3-d]pyrimidin-7-one]: the pIC50 was below 5.00 in [1] (ZR-75-1, 72 h drug exposure, read-out: Mean IC50, single agent Palbociclib); below 5.00 in test [2] (Hs578t, 72 h drug exposure, read-out: Mean IC50, single agent Palbociclib); below 5.00 in [4] (BT-549, 72 h drug exposure, read-out: Mean IC50, single agent Palbociclib); 5.61 in [5] (MDA-MB-134VI, 72 h drug exposure, read-out: Mean IC50, single agent Palbociclib); below 5.00 in test [6] (HCC1806, 72 h drug exposure, read-out: Mean IC50, single agent Palbociclib); below 5.00 in [8] (T-47D, 72 h drug exposure, read-out: Mean IC50, single agent Palbociclib). In addition, the pIC50 in test [9] (HCC70, 72 h drug exposure, read-out: Mean IC50, single agent Palbociclib) is below 5.00; in test [10] (MDA-MB-231, 72 h drug exposure, read-out: Mean IC50, single agent Palbociclib) it was 6.41; in [11] (MDA-MB-415, 72 h drug exposure, read-out: Mean IC50, single agent Palbociclib), 5.79; in [12] (MDA-MB-436, 72 h drug exposure, read-out: Mean IC50, single agent Palbociclib), 5.52; in test [13] (MCF7, MCF-7, 72 h drug exposure, read-out: Mean IC50, single agent Palbociclib), below 5.00. The “Tumor response at the higher amount of palbociclib” value in [14] was “overwhelmed the response”.
